Results: US9073982B2, “Targets for regulation of angiogenesis” (The University of North Carolina at Chapel Hill, priority 2008, dated 2015)

How the values were obtained:
[1] = tested on: HCAEC; assay: Scratch wound assay on HCAEC; type: cell-based, human; conditions: Jak3 20 nM-200 pM
Procedure: HCAEC were plated at 10,000 cells/well onto a 96 well plate and allowed to become confluent in EGM-2 with BulletKit growth supplements. The cells were quiesced in EGM-2 with 0.1% FBS without BulletKit growth supplements for 18 hours. The wound was formed using a 1 ml pipette tip. A 20 nM-200 pM dose curve of recombinant human Jak3 (Millipore, Temecula, Calif.) was added to the cells. Each concentration was performed in triplicate and the experiment was repeated three times with similar results. Migration distance was measured at 12 hours and then every 4 hours until wound closure in all wells. Data were recorded as percent of wound closed at each time point.

[2] = tested on: Human coronary artery endothelial cells (HCAEC); assay: Hypoxia-induced endothelial cell apoptosis assay (caspase 3); type: cell-based; conditions: Jak3 20 nM-200 pM, 36 hours hypoxia
Procedure: Human coronary artery endothelial cells (HCAEC) were used for apoptosis assays because apoptosis could not be induced in the MEC cells. HCAECs were grown in 10-cm dishes (Becton Dickinson, Franklin Lakes, N.J.) with endothelial cell basal medium-2 (EGM-2) BulletKit media (Clonetics, San Diego, Calif.) until 80% confluent. Medium was then replaced with optimal medium according to different assays. The hypoxic condition was created by incubating HCAECs in EGM-2 media without BulletKit growth factors at 37° C. in a hypoxia chamber with an atmosphere of 5% CO2/95% N2. The oxygen level in the chamber was controlled to 1.0%. Apoptosis was determined by measuring the activity of cleaved caspase 3 by using a caspase-specific fluorogenic substrate according to the protocol for the Caspase 3 Assay Kit (Sigma). HCAECs were lysed after treatment with concentrations of SFRP2 (70 pM and 700 pM) for 36 h under hypoxia. […] The enzyme-catalyzed release of 7-amino-4-methyl coumarin (AMC) was measured by a fluorescence microplate reader.
HCAEC were seeded onto a 96 well plate at 2,000 cells/well in EGM-2 with BulletKit growth supplements. […] Apoptosis was determined by measuring the activity of cleaved caspase 3 by using a caspase-specific fluorogenic substrate according to the protocol for the Apo-ONE® Homogeneous Caspase-3/7 Assay (Promega, Madison, Wis.). […]

[3] = tested on: HCAEC; assay: Endothelial cell proliferation assay (MTT); type: cell-based, human; conditions: Jak3, 48 hours
Procedure: HCAEC were seeded on a 96 well plate at a concentration of 2000 cells/well and allowed to proliferate for 24 hrs in EGM-2 with BulletKit growth supplements. The cells were then quiesced in EGM-2 with 0.1% FBS without BulletKit growth supplements for 18 hours. Media was replaced with fresh EGM-2 with BulletKit growth supplements and the cells were treated in triplicate with: PBS alone; recombinant murine VEGF (60 ng/mL); or Jak3 (at a concentration of 200 nM-200 pM). After 48 h, 10 μl of the colorimetric compound 3-(4,5-dimethylthiazol-2-yl)-2,5-diphenyl tetrazolium bromide (MTT) (5 mg/mL) was added to each well and allowed to incubate for 4 h at 37° C. All but 25 μl of media in each well was removed and 50 μl dimethyl sulfoxide (DMSO) was added. Following a 10 min incubation at 37° C., the A540 was measured using a microplate reader. A540 was converted to number of cells based on a standard curved created by seeding a 96-well plate with known concentrations of cells, as determined by hemocytometry, and measuring their A540 after 4 hrs incubation with MTT.

[4] = tested on: chick chorioallantoic membrane; assay: Chick chorioallantoic membrane (CAM) assay; type: in vivo, chicken; conditions: 100 ng per disk, evaluated day 3 after disk placement
Procedure: On day 4, the eggs were cracked into sterile Petri dishes and incubated at 99° F. in 3% CO2, 65% humidity. For application of drug onto the CAM, Whatman grade 1 filter paper was cut into circles with a 6 mm diameter paper punch and autoclaved. To decrease inflammatory effects of the disk, the discs were soaked in 1 ml of 3.0 mg/ml cortisone acetate in absolute ETOH and air dried for 60 min in a laminar flow hood. On day 8, 5 disks per egg were placed on the outer third of the CAM, 2-3 mm from a vessel. Control PBS 7 μl was added to the discs for the control CAMs, and SFRP2 100 ng/7 μl PBS was added to the disks for the treated CAMs (n=5 control disks and 5 SFRP2-treated disks). The CAMs were evaluated under a stereomicroscope on day 3 after disk placement. Pictures were taken with a Wild M-4 70 Macrosystem, and angiogenesis was quantified using Metamorph Software with an angiogenesis module.
Fertilized chickens eggs (NC State University Chicken Research Faint) were incubated at 100.4° F. in an egg turner (Model#1588 Genesis Hova-Bator, GQF Mfg. Co., Inc.) for 3 days. […] CAMs were evaluated under a stereomicroscope on day 3 after disk placement. Pictures were taken with a Wild M-4 70 Macrosystem and angiogenesis was quantified using Metamorph Software with an angiogenesis module.

[5] = tested on: HCAEC; assay: Tube formation assay on HCAEC; type: cell-based, human; conditions: Jak3 20 nM-200 pM, 8 hours
Procedure: ECMATRIX (Chemicon, Temecula, Calif.) was thawed, diluted, and solidified in a 96 well plate according to the manufacturer's instructions. HCAEC were seeded onto the matrix at 2,000 cells/well in 150 μl of EGM-2 with 5% FBS without BulletKit growth supplements. A 20 nM-200 pM dose curve of recombinant human Jak3 was added to the cells and the plates were returned to 37° C., 5% CO2 for 8 hours. Each concentration was performed in triplicate and the experiment was repeated three times with similar results. Wells were evaluated under a Nikon Eclipse TS100 microscope at 4× magnification and pictures were taken with a Nikon CoolPix 995 digital camera. Angiogenesis was quantified by counting branch points in the resulting image.
The role of STAT3 activation in Jak3-mediated tube formation was evaluated using a small peptide inhibitor of phosphorylated STAT3 (P-STAT3). ECMATRIX was solidified in wells of a 96 well plate. HCAEC were seeded onto the matrix at 2,000 cells/well in 150 μl of EGM-2 with 5% FBS without additional BulletKit growth supplements. Wells were treated in triplicate with: PBS alone, PBS+100 μM P-STAT3 inhibitor, 20 nM Jak3, or 20 nM Jak3+100 μM P-STAT3 inhibitor. Wells were photographed at 8 hours and tube formation was quantified by counting branch points in the resulting image.

## Jak3: recombinant human Jak3 (Millipore)
[1]
  endothelial cell migration (percent of wound closed): increased endothelial cell migration
[2]
  hypoxia induced endothelial cell apoptosis (caspase 3 activity): protected against hypoxia induced endothelial cell apoptosis
[3]
  cell proliferation: increased cell proliferation
[4]
  angiogenesis on the CAM (branch points, segments, tube area, tube length): induced angiogenesis on the CAM
[5]
  endothelial tube formation (branch points): induced by Jak3 in a concentration-dependent manner
